Holding throughout (assay): DTP human tumour cell line panel, 48 h
For test [1], the system named is MCF7 breast.
In test [2] the test system is HS 578T breast.
In test [3] the test system is M14 melanoma.
The subject of test [4] is SK-MEL-2 melanoma.
The subject of test [5] is MDA-MB-435.
For test [6], the system named is MDA-MB-231 breast.
The subject of test [7] is HT29 colon.
In test [8] the test system is UACC-257 melanoma.
In test [9] the test system is OVCAR-8 ovarian.
The test system of test [10] is SF-268 CNS.

SMILES strings stand for the structures. “And” between values parts separate entries of the source, which are not always exact repeats. Equal values may be shown once.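 Five compound concentrations were applied to cells in 96-well plates for 48 hours; endpoints were derived by simple linear interpolation of the resulting dose-response curve. GI50 marks 50% less growth. TGI: concentration producing complete growth inhibition.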 Where only a bound is given, the exact number is not on record here.

Consider `N#Cc1ccc2c(-c3ccnc(NC4CC4)n3)c(-c3ccc(F)cc3)nn2c1`, for which the GI50 in test [1] was > 25000 nM; in test [2] it was > 25 µM; in [3], > 25000 nM; in test [4], > 25000 nM; in test [5] it was > 25000 nM; in test [6], > 25 µM. For the same molecule, the GI50 is > 25000 nM in test [7], > 25 µM in test [8], > 25000 nM in [9] and > 25 µM in [10]. In addition, the TGI in test [1], in test [2], in [3], in test [4], in test [5] and in test [6] was > 25 µM each time. The TGI in test [7], in test [8], in test [9] and in [10] was > 25 µM each time.

In the case of `Cc1cnc(C(=O)Nc2nc3ccc(S(=O)(=O)Nc4ccc(C(C)(C)C)cc4)cc3[nH]2)cn1`, the 50% growth inhibitory concentration (GI50) in [1] is 338 nM; in test [2] it was 0.422 µM; in [3] it was 384 nM; in [4], 1260 nM; in test [5] it was 135 nM; in test [6], 1.41 µM. Also, the GI50 in test [7] is 388 nM; in test [8], 2.39 µM; in [9], 1260 nM; in test [10], 0.759 µM. For the same molecule, the TGI in [1] is 11.3 µM; in test [2] it was 10.6 µM; in test [3], 4.43 µM; in [4] it was 17.3 µM; in [5] it was 0.434 µM; in [6], 10.7 µM. Also, the TGI in test [7] was 4.23 µM; in test [8], 22.7 µM; in test [9], 17.2 µM; in [10], 13.6 µM.

As for `O=C1OC(c2ccccc2)=N/C1=C\c1ccccc1`, the TGI in [1] is > 100 µM; in test [2], > 100 µM; in test [3] it was > 100 µM; in test [4] it was 46.8 µM; in test [5], > 100 µM; in [6] it was > 100 µM. For the same molecule, the TGI was > 100 µM in [7]; 59.7 µM and > 100 µM in test [8]; > 100 µM and 73.1 µM in [9]; 82.5 µM and > 100 µM in test [10]. Further, the GI50 in test [7] was > 100000 nM and 32800 nM; in test [10] it was 14.5 µM and 34.8 µM.

On to `ClC/C=C/CSc1ncnc2nc[nH]c12`, for which the GI50 in [1] was > 100000 nM; in [2], > 100 µM; in [3], > 100000 nM; in [5] it was > 100000 nM; in [6], > 100 µM; in test [7] it was > 100000 nM. Also, the GI50 in test [8] was > 100 µM; in test [9] it was > 100000 nM; in test [10], > 100 µM. The TGI in test [1], in test [2], in test [3], in test [5], in test [6] and in [7] was > 100 µM each time. Moreover, the TGI in test [8], in test [9] and in [10] was > 100 µM each time.

Turning to `CCCCCCCCCC(=O)Oc1ccc(/C(=C(/C)c2ccccc2)c2ccc(OCCN3CCCC3)cc2)cc1`, the GI50 in test [1] is 5 nM; in test [2] it was 9.55 µM; in [4], 9490 nM; in test [5], 7470 nM; in [6], 10.2 µM; in [8], 9.23 µM. Besides, the GI50 is 9780 nM in [9] and 8.16 µM in [10]. The concentration for total growth inhibition (TGI) in test [1] was determined as 10.3 µM; in [2], 32.2 µM; in test [4] it was 18.1 µM; in test [5] it was 14.1 µM; in test [6], 20.2 µM; in test [8] it was 16.8 µM. In addition, the TGI turned out to be 20.8 µM in [9] and 17.2 µM in test [10].

In the case of `CC/C(=C/c1ccc(OC)cc1)[N+](=O)[O-]`, the GI50 in test [2] is 3.84 µM; in test [3], 1850 nM; in [4] it was 2020 nM; in test [5] it was 1680 nM; in [6] it was 2.31 µM; in test [7], 2710 nM. The GI50 in [8] was 2.07 µM; in test [9], 2230 nM; in test [10] it was 3.01 µM. Also, the TGI in [2] came to 22.2 µM; in test [3], 4.18 µM; in [4], 4.62 µM; in [5] it was 3.6 µM; in test [6], 4.9 µM; in [7], 7.12 µM. In addition, the values for the TGI in test [8], in test [9] and in test [10] were 4.56 µM, 4.98 µM and 10.4 µM, respectively.

Regarding `COc1ccc([C@@H]2[C@@H](Cl)C(=O)N2c2cc(OC)c(OC)c(OC)c2)cc1C`, the GI50 in [1] is 43.5 nM; in test [2] it was 0.049 µM; in test [3], 30.2 nM; in [4], 49.6 nM; in test [6] it was 0.163 µM; in test [7] it was 32.7 nM. In addition, the GI50 is 15.7 µM in [8], 50.4 nM in test [9] and 0.137 µM in test [10]. Moreover, the TGI was > 100 µM in [1]; 77.4 µM in test [2]; 17.5 µM in test [3]; 19.6 µM in test [4]; 42.1 µM in test [6]; 11.9 µM in [7]. Further, the results for the TGI in test [8], in [9] and in test [10] were 97.3 µM, 77.5 µM and 25 µM, respectively.

Consider `COc1cc([C@@H]2c3cc4c(cc3[C@@H](OC3OC5COC(C)OC5C(O)C3O)[C@H]3COC(=O)[C@H]23)OCO4)cc(OC)c1O` (some centres not stated), for which the TGI in test [1] was 103 µM and 500 µM and 432 µM; in test [5] it was 19 µM and 50 µM; in test [6], > 35 µM and 34.4 µM and 8.11 µM; in test [7], 79.8 µM and 500 µM and 125 µM; in test [9] it was 117 µM and 500 µM and 156 µM. In addition, the GI50 in test [2] was 2.86 µM and 5.72 µM; in test [6] it was 7.49 µM and 5.82 µM.

As to `C=C(C)[C@@H]1CC[C@]2(C(=O)O)CC[C@]3(C)[C@H](CC[C@@H]4[C@@]5(C)CCC(N)C(C)(C)[C@@H]5CC[C@]43C)[C@@H]12` (some centres not stated), the GI50 is 2.48 µM in test [2], 1950 nM in test [4], 1750 nM in test [5] and 1.88 µM in test [6]. The concentration for total growth inhibition (TGI) was 5.38 µM in [2], 3.69 µM in test [4], 3.32 µM in test [5] and 3.69 µM in test [6].

These data come from PubChem BioAssay (NCI).
